The source of these data is patent US9637495B2, “CGRP receptor antagonists” (Eli Lilly and Company, priority 2015, dated 2017).

The first experiment deals with T1, human CGRP receptor (Homo sapiens, UniProt O60894+Q16602).
T1 construct: SK-N-MC neuroblastoma cells (ATCC® HTB-10™) that endogenously express the hCGRP receptor; host or cells: SK-N-MC neuroblastoma cells
T1 sequence (Q16602 23-461): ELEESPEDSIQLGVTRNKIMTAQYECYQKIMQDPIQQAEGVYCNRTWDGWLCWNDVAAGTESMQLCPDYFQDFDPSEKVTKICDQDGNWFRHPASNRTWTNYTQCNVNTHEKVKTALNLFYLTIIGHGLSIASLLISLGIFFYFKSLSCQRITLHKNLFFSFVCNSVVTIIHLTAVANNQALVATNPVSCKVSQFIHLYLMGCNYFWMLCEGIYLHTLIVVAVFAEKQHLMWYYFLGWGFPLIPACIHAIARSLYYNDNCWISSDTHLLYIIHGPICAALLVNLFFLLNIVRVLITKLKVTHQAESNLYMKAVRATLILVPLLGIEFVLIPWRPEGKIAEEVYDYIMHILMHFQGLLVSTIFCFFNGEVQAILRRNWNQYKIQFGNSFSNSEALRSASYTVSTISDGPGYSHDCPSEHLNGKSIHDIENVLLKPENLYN
T1 sequence (O60894 27-148): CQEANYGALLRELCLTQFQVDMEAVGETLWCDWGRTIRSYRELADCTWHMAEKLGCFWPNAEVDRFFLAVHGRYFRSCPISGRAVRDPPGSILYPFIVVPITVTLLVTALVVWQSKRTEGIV
Nature of the experiment: Inhibition of cAMP production by CGRP receptor antagonists in SK-N-MC cells (HTRF). As to conditions: SK-N-MC neuroblastoma cells, human CGRP 0.8 nM as agonist, Kb estimated as agonist-corrected IC50, mean ± SEM; read-out: Kb hCGRP. Type of experiment: cell-based. An excerpt:
Inhibition of cAMP Production by CGRP Receptor Antagonists
The hCGRP (human calcitonin gene-related peptide) receptor is functionally coupled to the Gαs proteins. Stimulation of hCGRP results in an increased synthesis of intracellular cAMP and can be blocked by the addition of receptor antagonists. Receptor activity is thus a reflection of the amount of cAMP present within cells which can be detected using standard in vitro technology.
Cultured SK-N-MC neuroblastoma cells (ATCC® HTB-10™) that endogenously express the hCGRP receptor are grown in Eagle's Minimum essential medium (HYCLONE™) supplemented with 10% heat-inactivated Fetal bovine serum (FBS; GIBCO®), Non-Essential Amino Acids (GIBCO®), 1 mM sodium pyruvate, 2 mM L-glutamine, 100 U/mL of penicillin, and 10 μg/mL of streptomycin to about 70% confluency. After providing fresh medium, the cells are incubated at 37° C. overnight. On the day of the assay, cells are detached using ACCUTASE® (MP Biomedicals), resuspended in assay buffer [Hank's Balanced Salt Solution/Dulbecco's phosphate-buffered saline with […] each of CaCl2 and MgCl2 mixed 1:2, 3.3 mM 4-(2-hydroxyethyl)-1-piperazineethanesulfonic acid, 0.03% bovine serum albumin, and 0.5 mM 1-methyl-3-isobutylxanthine (as inhibitor of […])], and seeded 3-5K/well into 384-well, poly-D-lysine coated white plates (BD Biosciences).
For dose-response studies, compounds are serially diluted 1:3 in dimethyl sulfoxide and then 1:10 into assay buffer. Human CGRP (0.8 nM; Bachem) as a receptor-specific agonist for the hCGRP receptor is mixed with diluted compound and added to the cells as the challenge stimulant at their EC80 concentrations.
The amount of intracellular cAMP is quantitated using HTRF technology (Cisbio) as per vendor instructions. Briefly, cAMP-d2 conjugate and anti-cAMP-cryptate conjugate in lysis buffer are incubated with the treated cells at room temperature for 90 min. The HTRF signal is immediately detected using an ENVISION® plate reader (Perkin-Elmer) to calculate the ratio of fluorescence at […]. The raw data are converted to cAMP amount (pmole/well) using a cAMP standard curve generated for each experiment. Relative EC50 values are calculated from the top-bottom range of the concentration response curve using a four-parameter logistic curve fitting program (ACTIVITYBASE® v5.3.1.22 or GENEDATA SCREENER® v12.0.4), and Kb values are estimated as agonist-corrected IC50 values using the equation: Kb=(IC50)/[1+([Agonist]/EC50)]. Estimated Kb values are reported as mean values±SEM, averaged from the number of runs (n).
In general, Kb refers to the equilibrium dissociation constant of an antagonist, usually derived from a functional assay. Regarding `Cc1cc(C#N)nc(CNC(=O)c2ccc([C@@H](C)[C@@]3(C)C(=O)Nc4ncccc43)cc2)c1` [Example 11, N-[(6-cyano-4-methyl-2-pyridyl)methyl]-4-[(1R)-1-[(3R)-3-methyl-2-oxo-1H-pyrrolo[2,3-b]pyridin-3-yl]ethyl]benzamide], the Kb is 40.4 pM.

As to `Cc1cc(CNC(=O)c2ccc([C@@H](C)[C@@]3(C)C(=O)Nc4ncccc43)cc2)cc(C2CC2)n1` [Example 4, N-[(2-cyclopropyl-6-methyl-4-pyridyl)methyl]-4-[(1R)-1-[(3R)-3-methyl-2-oxo-1H-pyrrolo[2,3-b]pyridin-3-yl]ethyl]benzamide], the antagonist equilibrium constant (Kb) is 26.6 pM. The same measure, in the same setting: in the case of `Cc1cc(CNC(=O)c2ccc([C@@H](C)[C@@]3(C)C(=O)Nc4ncccc43)cc2)cc(C2CCC2)n1` [Example 5, N-[(2-cyclobutyl-6-methylpyridin-4-yl)methyl]-4-{(1R)-1-[(3R)-3-methyl-2-oxo-2,3-dihydro-1H-pyrrolo[2,3-b]pyridin-3-yl]ethyl}benzamide] it was 6.96 pM. On the same count and under the same terms, the same measure for `Cc1cc(CNC(=O)c2ccc([C@@H](C)[C@@]3(C)C(=O)Nc4ncccc43)cc2)cc(C#N)n1` [Example 16, N-[(2-cyano-6-methylpyridin-4-yl)methyl]-4-{(1R)-1-[(3R)-3-methyl-2-oxo-2,3-dihydro-1H-pyrrolo[2,3-b]pyridin-3-yl]ethyl}benzamide]: 813 pM. With `Cc1cc(C)nc(CNC(=O)c2ccc([C@@H](C)[C@@]3(C)C(=O)Nc4ncncc43)cc2)c1` [Example 7, N-[(4,6-dimethylpyridin-2-yl)methyl]-4-{(1R)-1-[(5R)-5-methyl-6-oxo-6,7-dihydro-5H-pyrrolo[2,3-d]pyrimidin-5-yl]ethyl}benzamide], the Kb was 97.7 ± 2.76 pM. Same read-out and setting: in the case of `Cc1cc(CNC(=O)c2ccc([C@@H](C)[C@@]3(C)C(=O)Nc4ncccc43)cc2)cc(C)n1` [Example 2, N-[(2,6-dimethyl-4-pyridyl)methyl]-4-[(1R)-1-[(3R)-3-methyl-2-oxo-1H-pyrrolo[2,3-b]pyridin-3-yl]ethyl]benzamide] it was 36.6 ± 15.4 pM. As to `Cc1cc(CNC(=O)c2ccc([C@@H](C)[C@@]3(C)C(=O)Nc4ncccc43)cc2)cc(C2CCCC2)n1` [Example 6, N-[(2-cyclopentyl-6-methylpyridin-4-yl)methyl]-4-{(1R)-1-[(3R)-3-methyl-2-oxo-2,3-dihydro-1H-pyrrolo[2,3-b]pyridin-3-yl]ethyl}benzamide], the antagonist equilibrium constant (Kb) was 18.2 pM. Regarding `Cc1cc(C)nc(CNC(=O)c2ccc([C@@H](C)[C@@]3(C)C(=O)Nc4ncccc43)cn2)c1` [Example 15, N-[(4,6-dimethylpyridin-2-yl)methyl]-5-{(1R)-1-[(3R)-3-methyl-2-oxo-2,3-dihydro-1H-pyrrolo[2,3-b]pyridin-3-yl]ethyl}pyridine-2-carboxamide], the Kb was 171 ± 33.9 pM. The same measure, in the same setting: the same measure for `Cc1cc(CNC(=O)c2ccc([C@@H](C)[C@@]3(C)C(=O)Nc4ncccc43)cn2)cc(C)n1` [Example 1, N-[(2,6-dimethylpyridin-4-yl)methyl]-5-{(1R)-1-[(3R)-3-methyl-2-oxo-2,3-dihydro-1H-pyrrolo[2,3-b]pyridin-3-yl]ethyl}pyridine-2-carboxamide]: 46.5 ± 9.7 pM. Same read-out and setting: the same measure for `Cc1cc(CNC(=O)c2ccc([C@@H](C)[C@@]3(C)C(=O)Nc4ncccc43)cc2)cc(C(C)C)n1` [Example 14, 4-{(1R)-1-[(3R)-3-methyl-2-oxo-2,3-dihydro-1H-pyrrolo[2,3-b]pyridin-3-yl]ethyl}-N-{[2-methyl-6-(propan-2-yl)pyridin-4-yl]methyl}benzamide]: 26 pM. As to `CCc1cc(CNC(=O)c2ccc([C@@H](C)[C@@]3(C)C(=O)Nc4ncccc43)cc2)cc(C)n1` [Example 3, N-[(2-ethyl-6-methylpyridin-4-yl)methyl]-4-{(1R)-1-[(3R)-3-methyl-2-oxo-2,3-dihydro-1H-pyrrolo[2,3-b]pyridin-3-yl]ethyl}benzamide], the antagonist equilibrium constant (Kb) is 17.3 pM.

Regarding `Cc1cc(CNC(=O)c2ccc([C@@H](C)[C@@]3(C)C(=O)Nc4ncccc43)cn2)cc(C2CC2)n1` [Example 9, N-[(2-cyclopropyl-6-methylpyridin-4-yl)methyl]-5-{(1R)-1-[(3R)-3-methyl-2-oxo-2,3-dihydro-1H-pyrrolo[2,3-b]pyridin-3-yl]ethyl}pyridine-2-carboxamide], the antagonist equilibrium constant (Kb) is 24.5 pM. On the same count and under the same terms, the same measure for `CCc1cc(CNC(=O)c2ccc([C@@H](C)[C@@]3(C)C(=O)Nc4ncccc43)cn2)cc(C)n1` [Example 13, N-[(2-ethyl-6-methylpyridin-4-yl)methyl]-5-{(1R)-1-[(3R)-3-methyl-2-oxo-2,3-dihydro-1H-pyrrolo[2,3-b]pyridin-3-yl]ethyl}pyridine-2-carboxamide]: 45.3 ± 1.53 pM. Turning to `Cc1cc(C)nc(CNC(=O)c2ccc([C@@H](C)[C@@]3(C)C(=O)Nc4ncccc43)cc2)c1` [Example 12, N-[(4,6-dimethylpyridin-2-yl)methyl]-4-{(1R)-1-[(3R)-3-methyl-2-oxo-2,3-dihydro-1H-pyrrolo[2,3-]pyridin-3-yl]ethyl}benzamide], the antagonist dissociation constant (Kb) was 42.8 ± 13 pM. On the same count and under the same terms, in the case of `Cc1cc(CNC(=O)c2ccc([C@@H](C)[C@@]3(C)C(=O)Nc4ncncc43)cn2)cc(C)n1` [Example 10, N-[(2,6-dimethyl-4-pyridyl)methyl]-5-[(1R)-1-[(5R)-5-methyl-6-oxo-7H-pyrrolo[2,3-d]pyrimidin-5-yl]ethyl]pyridine-2-carboxamide] it was 198 ± 45.9 pM.

For the next experiment, the system named is CGRP receptor. Nature of the experiment: Capsaicin-induced dermal blood flow (laser Doppler imaging) in non-human primates. The experiment is classed as in vivo. The note with it: 3 mg/kg orally, 90 min prior to capsaicin, cynomolgus NHP, compared to vehicle, p<0.008. An excerpt: Capsaicin-induced dermal blood flow (DBF) is used as a target engagement biomarker to assess CGRP receptor activity in nonhuman primates (NHPs). Methods are adapted from earlier published procedures [Hershey et al., Regulatory Peptides, Volume 127, Issue 1-3, pp. 71-77, 2005].
Animal studies may be performed under protocols approved by the Covance Institutional Animal Care and Use Committee. Cynomolgus NHPs may be used given the close homology between NHP and human CGRP receptor. The study population may include healthy, CGRP antagonist naive cynomolgus NHP males weighing ˜3-4 kg.
Cynomolgus NHPs are enrolled in the study based on prescreening for capsaicin responsiveness. […] NHPs are used in a cross over design in which all NHPs received all doses after a two week wash-out period. Total n=10 NHPs per group.
NHPs each receive vehicle, 3, 10 and 30 mg/kg of the CGRP receptor antagonist Example 1 administered orally (10% Acacia w/v/0.05% Antifoam 1510-US emulsion v/v/in purified water) 90 min prior to the capsaicin administration in the laser Doppler imaging (LDI) experiment.
Animals are fasted overnight prior to each capsaicin challenge. On the day of the experiment, the NHPs are anesthetized with 1% Isoflurane for approximately 30 min prior to scanning. The NHPs are placed in a quiet, temperature-controlled room supine on a warm small surgical blanket and the shaved arm is placed on a heating pad under the laser head. Three neoprene O-rings (size=8 mm ID) are placed on the NHP forearm, approximately 1 cm apart. During a 30-minute stabilization period, preliminary scans are obtained to confirm correct positioning of the O-rings. […]
LDI repeat scans are analyzed using Moor software v.5.3 (Moor Instruments, Wilmington, Del.) by region of interest signal analysis, and Microsoft Excel worksheets are used for averaging the signal from the regions of interest at a given time point. […] Analyzed data is entered into Graphpad PRISM® 4.0 for graphing and a repeated measurement mixed-effect model in SAS® 9.1 is used for statistical analysis. Data is expressed as mean+/−SEM.
Consider `Cc1cc(CNC(=O)c2ccc([C@@H](C)[C@@]3(C)C(=O)Nc4ncccc43)cn2)cc(C)n1` [Example 1, N-[(2,6-dimethylpyridin-4-yl)methyl]-5-{(1R)-1-[(3R)-3-methyl-2-oxo-2,3-dihydro-1H-pyrrolo[2,3-b]pyridin-3-yl]ethyl}pyridine-2-carboxamide], for which the “group mean inhibition of capsaicin-induced dermal blood flow increase” value worked out at 32.1%.

Staying with this experiment, now noted: 10 mg/kg orally, 90 min prior to capsaicin, cynomolgus NHP, compared to vehicle, p<0.0004.
For the compound `Cc1cc(CNC(=O)c2ccc([C@@H](C)[C@@]3(C)C(=O)Nc4ncccc43)cn2)cc(C)n1` [Example 1, N-[(2,6-dimethylpyridin-4-yl)methyl]-5-{(1R)-1-[(3R)-3-methyl-2-oxo-2,3-dihydro-1H-pyrrolo[2,3-b]pyridin-3-yl]ethyl}pyridine-2-carboxamide], the “group mean inhibition of capsaicin-induced dermal blood flow increase” value stood at 46.1%.

The same experiment, now with this note: 30 mg/kg orally, 90 min prior to capsaicin, cynomolgus NHP, compared to vehicle, p<0.00002.
Take `Cc1cc(CNC(=O)c2ccc([C@@H](C)[C@@]3(C)C(=O)Nc4ncccc43)cn2)cc(C)n1` [Example 1, N-[(2,6-dimethylpyridin-4-yl)methyl]-5-{(1R)-1-[(3R)-3-methyl-2-oxo-2,3-dihydro-1H-pyrrolo[2,3-b]pyridin-3-yl]ethyl}pyridine-2-carboxamide]: the “group mean inhibition of capsaicin-induced dermal blood flow increase” value is 58.8%.
